Test results published in US20140328826A1, “PRODUCT AND METHOD FOR TREATING KELOID SCARS, HYPERTROPHIC SCARS AND BURN SCARS WITH CONTRACTURE” (COLE Research & Design, Inc., priority 2013, published 2014).

System: keloid scar
Assay: Intralesional injection of the pharmaceutical composition into keloid scars of patients
Format: in vivo, human
Conditions: injected into the keloid scar; general statement, 'often'
Protocol: A pharmaceutical composition was prepared by mixing 1.0 mg of high molecular weight hyaluronic acid (0.1 cc of HYALGAN®, sodium hyaluronate) with 7.5 units of hyaluronidase (HYLENEX® recombinant human hyaluronidase), which was injected into the keloid scar. […] Erythema and tenderness of the keloid scar was also resolved.
A pharmaceutical composition was prepared as in Example 1, and injected into the keloid scar.
The patient also reported a sharp, piercing pain from the keloid scar. A pharmaceutical composition was prepared as in Example 1, and injected into the keloid scar.
A fourth patient had two keloid scars, one on each earlobe. A pharmaceutical composition was prepared as in Example 1, and injected into each of the keloid scars. […] Some itching was reported by the patient.
All four patients responded to the treatment. Overall, there was significant reduction in keloid scar size, with an average of approximately a 22% reduction in length, a 37% reduction in width, and a 45% reduction in height. Even more striking was great reduction in density and hardness of the keloid scar tissue, leaving a soft pliable skin sack after treatment.
Only a few mild adverse reactions were reported. Two patients reported very mild itching from the keloid scars. Some stinging from the injection was also reported. No significant pain or swelling was reported.

Substance: low molecular weight hyaluronic acid
- shrinkage of keloid scar volume: ≥ 50%
